Assay results reported in patent US7408022B2, “Composition and method for increasing apoptosis in cancer cells” (Celtek Bioscience, LLC, priority 2004, dated 2008).
Peptide text beside a SMILES is read from it.

Columns and labels:
DU145 cells [1] = experiment: TUNEL assay; type: cell-based, Human; conditions: peptide 30 min, then cisplatin 5 μg/ml 16 h; CB5003 40 μM, CB5002 72 μM, CB5007 30 μM
Experimental: DU145 cells were grown on 8-well chamber slides to a confluence of 70-80%. The cells were then incubated with different concentrations of peptides or diluent for 30 min at 37° C. followed by the treatment with cisplatin (5 μg/ml) or diluent for an additional 16 h. The cells were air-dried and fixed in 4% paraformaldehyde at room temperature for 1 h. The cells were then washed with PBS and permeabilized with permeabilization solution (0.1% Triton X-100 in 0.1% sodium citrate) for 2 min on ice. Apoptosis was detected using TUNEL method “in situ cell death detection POD” according to the manufacturer's instructions (Roche, Indianapolis, Ind.). The fluorescein-labeled DNA strand breaks due to apoptosis were visualized under light microscope (Microstar IV, Reichard, Buffalo, N.Y.) by using anti-fluorescein antibody conjugated POD (peroxidase) at ×40 magnification. The images were analyzed using a Pixera digital camera.

DU145 cells [2] = experiment: Indirect immunofluorescence assay for peptide cellular import; type: cell-based, Human; conditions: different concentrations of peptides, 1 h at 37° C.
Experimental: DU145 cells were grown on 8-well chamber slides (Nunc, Naperville, Ill.) to a confluence of 80%. These cells were then incubated with diluent or different concentrations of peptides in RPMI without serum for 1 h at 37° C. The cells were washed three times with cold PBS to remove the extracellular peptides and then fixed with 3.5% paraformaldehyde solution in PBS at 4° C. for 20 min. The fixed cells were washed three times with cold PBS and treated with 0.25% Triton X-100 for 10 min. The washed cells were then incubated with anti-peptide IgG in PBS for 1 h. After three 5 min washings with PBS, the intracellular peptides (via peptide-antibody complexes) were subsequently detected with FITC-labeled goat anti-rabbit IgG (Pierce, Rockford, Ill.) after 1 h incubation. Cover slips with stained cells were mounted in Poly/Mount (Polysciences, Warrington, Pa.) and analyzed with Microstar IV (Reichard, Buffalo, N.Y.) using a 100× oil immersion lens. The color images were analyzed using a Pixera digital camera and stored in JPG format. The same assay was also utilized for determining peptide cellular import in other cell lines, including PC3, LNCaP, and neuroblastoma N2a cells.

DU145 cells [3] = experiment: Flow cytometric analysis of annexin V/PI stained cells; type: cell-based, Human; conditions: for induction of apoptosis by co-treatment with cisplatin (flow cytometry): CB5005 30 μM, CB5003 72 μM, CB5002 72 μM, cisplatin 5 μg/ml
Experimental: PCA cells were grown on 60-mm dishes to a confluence of 50-60%. These cells were incubated with different concentrations of peptides for 30 min at 37° C. followed by the treatment with TNF-α (10 ng/ml), cisplatin (2-30 μg/ml), etoposide (2-20 μg/ml) or diluent for an additional 21 h at 37° C. Phosphatidylserine exposure on apoptotic cells was measured by their ability to bind Annexin V. Specifically, cells were harvested by trypsinization. The trypsinized cells, media and PBS washes were combined and cells collected by centrifugation. […] Stained cells were analyzed by flow cytometry. A minimum 20,000 events for each sample was measured.

[4] = tested on: NF-κB nuclear translocation in LNCaP cells; experiment: Western blot analysis of NF-κB p50 protein in nuclear extracts; type: cell-based, Human; conditions: peptide 30 min, then TNF-α 10 ng/ml 1 h
Experimental: (§1) PCA cells were grown on 60-mm dishes to a confluence of 70-80%. The cells were incubated with different concentrations of peptides for 30 min at 37° C., followed by treatment with TNF-α (10 ng/ml) for an additional 1 h at 37° C., as indicated, or incubated with peptide alone for 16 hours. After the treatment, cells were washed with ice-cold PBS and lysed in 500 μl of buffer A (10 mM HEPES, pH 7.9, 10 mM KCl, 0.1 mM EDTA, 0.1 mM EGTA, 0.4% Nonidet P-40, 1 mM DTT, 0.5 mM PMSF and 1 μg/ml each of leupeptin, aprotinin, pepstatin, chymostatin and antipain) on ice for 10 min. Nuclei were pelleted by centrifugation at high speed and washed with 500 μl of buffer A. Nuclei were then resuspended in 40 μl of buffer B (20 mM HEPES, pH 7.9, 400 mM NaCl, 1 mM EDTA, 1 mM EGTA, 1 mM DTT, 1 mM PMSF and 1 μg/ml each of leupeptin, aprotinin, pepstatin, chymostatin and antipain). The protein concentration of nuclear extract was determined using Pierce BCA protein assay and equalized among samples using buffer B.
(§2) Equal amounts of proteins were heat-treated in 2×SDS sample loading buffer at 100° C. for 5 minutes and fractionated by 10% SDS polyacrylamide electrophoresis. The proteins were transferred to nitrocellulose paper. After blocking with 5% nonfat milk in TBS (10 mM Tris-HCl, pH 7.6, 70 mM NaCl and 0.05% Tween 20) for 30 minutes, nuclear NFκB p50 was detected by using an anti-p50 IgG antibody (1:5000), (Upstate, Lake Placid, N.Y.). The primary antibody was visualized with horseradish peroxidase-coupled secondary antibody by using ECL western blotting system as described in manufacturer's protocol (Pierce, Rockford, Ill.).

[5] = tested on: NF-κB nuclear translocation in DU145 cells; experiment: as above; type: cell-based, Human; conditions: CB5005 30 μM, CB5003 90 μM, CB5007 30 μM for 30 min, then TNF-α 10 ng/ml 1 h
Experimental: as §1, §2

LNCaP cells = experiment: In vitro cytotoxicity assay (MTS); type: cell-based, Human; conditions: 24 h at 37° C.
Experimental: (§3) LNCaP, DU145, PC3, or neuroblastoma N2a cells were grown in 96-well plates to a confluence of 60%. The treatments with different concentrations of peptide were performs in quadruplicates in a total volume of 100 μl in RPMI without serum for 24 h at 37° C. The cells were then washed and incubated at 37° C. with 100 μl phenol-red free RPMI containing 20 μl of the CellTiter 96 AQueous Solution reagent (Promega, Madison, Wis.) for 1 h. The absorbency in each well was recorded at 490 nm using a Microplate Autoreader EL 309 (Bio-Tek Instruments, Winooski, Vt.). The absorbency reflects directly the number of viable cells. Blanks were subtracted from all data. The data were then analyzed using Prism software (GraphPad Software Inc., San Diego, Calif.) and expressed as a mean ±SE of three independent experiments. Statistical significance was performed by one way ANOVA and consider significant if p<0.05.

DU145 cells [6] = experiment: In vitro cytotoxicity assay (MTS); type: cell-based, Human; conditions: DU145, 30 μM, 24 h
Experimental: as §3

PC3 cells = experiment: In vitro cytotoxicity assay (MTS); type: cell-based, Human; conditions: PC3, 30 μM, 24 h
Experimental: as §3

neuroblastoma N2a cells = experiment: In vitro cytotoxicity assay (MTS); type: cell-based; conditions: 24 h at 37° C.
Experimental: as §3

[7] = Quantitative indirect immunofluorescence assay of peptide cellular import (96-well plates); type: cell-based; conditions: from time-dependent fluorescence accumulation, 1-20 h
Excerpt: This indirect immunofluoresence assay was also utilized to quantitate peptide cellular import. Briefly, cells grown in 96-well plates will be treated with peptides for different time periods, and then subjected to an indirect immunofluorescence assay using anti-peptide antibody and FITC-labeled anti-rabbit antibody as described above. Cells were then lysed with 10% SDS and the fluorescence in the soluble cell solutions was quantified by a Cytofluor™ 2300 reader (Millipore) at 485/560 nm. The fluorescence readings were calculated by subtracting […] of peptide-untreated sample. The data were expressed as mean ±SEM of three independent experiments performed in quintuplicate samples. The kinetics of imported CB5005 peptide (SEQ ID NO: 4) was studied by using this quantitative.

DU145 cells [8] = experiment: Annexin V/PI fluorescence microscopy apoptosis assay; type: cell-based, Human; conditions: cisplatin 5 μg/ml alone, 5 h
Experimental: DU145 cells were grown on 4-well chamber slides to a confluence of 70-80%. Cells were then treated with CB5005 peptide (SEQ ID NO: 4) (30 μM) or diluent for 30 min at 37° C. followed by cisplatin (5 μg/ml) for an additional 5 h. […] The chamber slides were mounted in Poly/mount (Polysciences, Warrington, Pa.) and analyzed with a fluorescence microscope (Microstar IV, Reichard, Buffalo, N.Y.) using ×100 oil immersion lens. The color images were analyzed by a Pixera digital camera and stored in JPG format.

Row | Compound | sensitizing activity to cisplatin-induced apoptosis (TUNEL) (DU145 cells [1]) | cellular import activity (DU145 cells [2]) | induction of apoptosis by co-treatment with cisplatin (flow cytometry) (DU145 cells [3]; 21 h) | TNF-α-induced NF-κB nuclear translocation [4] | TNF-α-induced NF-κB nuclear translocation [5] | other results
1 | CB5002: control peptide with a mutant, non-functional CPS located N-terminal to the NLS (LALLAPVQRKRQKLMP) | not | not active | did not show significant effect |  |  | 
2 | CB5007: control peptide corresponding to CB5005 except that two basic residues in the NF-kB p50 NLS are mutated (KR-NG) (KLKLALALALAVQRNGQKLMP) | not |  |  | did not have an inhibitory effect | did not have an inhibitory effect | 
3 | CB5003: analogous peptide possessing only a portion of the CPS (SEQ ID NO: 1) N-terminal to the NF-κB p50 NLS (LALALAVQRKRQKLMP) | active, although at a much lower level | much weaker import activity | active but to a much less extent | inhibited | inhibited | synergistic activity in enhancing the apoptosis induced by cisplatin (dependence on concentration) (DU145 cells [3]; DU145, flow cytometry): concentration-dependent
4 | CSCC[C@H](NC(=O)[C@H](CC(C)C)NC(=O)[C@H](CCCCN)NC(=O)[C@H](CCC(N)=O)NC(=O)[C@H](CCCNC(=N)N)NC(=O)[C@H](CCCCN)NC(=O)[C@H](CCCNC(=N)N)NC(=O)[C@H](CCC(N)=O)NC(=O)[C@@H](NC(=O)[C@H](C)NC(=O)[C@H](CC(C)C)NC(=O)[C@H](C)NC(=O)[C@H](CC(C)C)NC(=O)[C@H](C)NC(=O)[C@H](CC(C)C)NC(=O)[C@H](C)NC(=O)[C@H](CC(C)C)NC(=O)[C@H](CCCCN)NC(=O)[C@H](CC(C)C)NC(=O)[C@@H](N)CCCCN)C(C)C)C(=O)N1CCC[C@H]1C(=O)O [CB5005] (H-KLKLALALALAVQRKRQKLMP-OH; N-terminus and C-terminus assumed) |  |  |  |  |  | cytotoxicity (MTS) (LNCaP cells): not toxic; cytotoxicity (MTS), peptide-untreated vs treated samples (DU145 cells [6]): Statistical significance (p<0.05); cytotoxicity (MTS), peptide-untreated vs treated samples (PC3 cells): Statistical significance (p<0.05); cytotoxicity (MTS) (neuroblastoma N2a cells): did not result in toxicity; stability in intracellular compartments [7]: relatively stability
5 | N.N.[Cl][Pt][Cl] [cisplatin, reference compound] |  |  |  |  |  | induction of apoptosis (flow cytometry) (DU145 cells [3]; cisplatin 5 μg/ml alone, 21 h): ineffective; induction of apoptosis (annexin V-FITC staining) (DU145 cells [8]): ineffective
